Measured values published in patent US6846505B2, “Anti-oxidant” (Danisco A/S, priority 1999, dated 2005).

Key:
[1] = β-carotene method: de-coloration of beta-carotene by oxygen and oxidative intermediates of linoleic acid (OD470 nm)
Description: (§1) The following five methods were used to evaluate compounds in accordance with the present invention. […] Note: both MDA and 4-HNE are the oxidation products of polyunsaturated fatty acids from lipids. • 3. β-carotene method was used to measure the protection of β-carotene oxidation by lipid peroxide in the presence of an added anti-oxidant. • 4. DPPH (1,1-diphenyl-2-picrylhydrazyl) method was used to measure the radical scavenging activity of an anti-oxidant towards the radical DPPH. • 5. polyphenol oxidase (PPO) method was used to measure the inhibition of polyphenol oxidase in vegetables, fruits and mushrooms.
Principle and Goal: Carotenes are one of the pigments which may be used to give a healthy colour to food or drinks. They are therefore used as food colorant. β-Carotene is also the precursor for vitamin A. Carotenoid molecules are highly unsaturated and are prone to oxidative degradation; which is stimulated by light, enzymes, metals, and co-oxidation with lipid hydroperoxides.
In the system used, beta-carotene was exposed to oxygen and the oxidative intermediates of linoleic acid.
The assay was performed according to H. E. Miller (JAOSC (1970) 48: 91). The assay system consisted of beta-carotene, linoleic acid, and Tween 40. In the blank, no anti-oxidant was added, while in the tests, either APP in a concentration of 2.5-25 ppm or sodium ascorbate in a concentration of 100-500 ppm was added. The mixtures were incubated in the dark for the time and temperature indicated (see Table 2.1 and 2.2). The absorbance was then measured at 470 nm. The absorbance provided an indication of beta-carotene content. Lower OD470 nm values indicate more degradation of beta-carotene.

[2] = LPO method: MDA and 4HNE from oxidation of linoleic acid (OD586 nm); conditions: for OD586 nm of the ascorbate test / OD586 nm of the APP test: 24° C. in the dark for 10 days
Description: as §1
Principle and Goal: A major area for use of antioxidants in food-related products are their ability to prevent the oxidation of polyunsaturated fatty acids in lipids. The oxidation of lipids and fatty acids is a major problem in food.
Assay Conditions: The assay of MDA and 4HNE was performed by the LPO method, using the assay kit from OXIS International, Inc. (Portland, Oreg., USA) and according to their protocol. The assay mixture for the blank contained linoleic acid and Tween 40. For the tests, APP or sodium ascorbate was added. After incubation at 24° C. in the dark for 10 days, the samples were assayed for MDA and 4HNE contents as indicated by their absorbance at 586 nm as given in Table 3. Higher OD586 nm values indicate higher content of MDA and 4HNE, and therefore more degradation of linoleic acid.

[3] = system: apple slices; test: Browning of apple slices (Example 1, FIG. 2); conditions: prolonged period, weeks or months, at room temperature
Description: Compounds of the present invention were investigated as an anti-browning agent in vegetable and fruit products.

[4] = system: mushroom polyphenol oxidase (PPO); test: Polyphenol oxidase (PPO) inhibition, tyrosine substrate, absorbance at 475 nm; format: biochemical; conditions: for OD475 nm (browning product formation): 10 ppm APP, 24° C., pH 6.5
Protocol: Principle and Goal: PPO is one of the enzymes involved in oxidative browning of vegetables and fruits. […] Blank: To 20 μl PPO (20 units, from mushroom. Sigma product. EC 1.14.18.1) was added 0.45 ml water, 0.43 ml phosphate buffer (0.2M Na2HPO4—NaH2PO4, pH6.5), so the final volume was 0.9 ml Control: To 20 μl PPO was added 0.15 ml water, 0.43 ml phosphate buffer (0.2M Na2HPO4—NaH2PO4, pH6.5), then 0.3 ml tyrosine (1 mM, BDH product). Time course progress of the reaction was monitored at room temperature (24° C.) at 475 nm by using a Perkin Elmer UV/VIS Lambda 18 spectrophotometer. Test: To 20 μl PPO was added 0.143 ml water, 7 μl APP (final 10 ppm), 0.430 ml phosphate buffer (0.2M Na2HPO4—NaH2PO4, pH6.5), then 0.3 ml tyrosine (1 mM, BDH product). Time course progress of the reaction was monitored as above. Table 1. Inhibition of 10 ppm APP on polyphenol oxidase (PPO) as indicated by very slow increase at absorbance 475nm compared to control. Higher values at OD475 nm indicate more browning product formation.

[5] = disclosed tests of reference [3]; cited from earlier work

With `O=C1O[C@H]([C@@H](O)CO)C([O-])=C1O.[Na+]` [Sodium ascorbate, sodium ascorbate, reference compound] the “The OD470 nm of the ascorbate test” value ([1]; 100 ppm, 37° C. for 161 min in the dark) was −0.01, the “The OD470 nm of the ascorbate test” value ([1]; 100 ppm, 37° C. for 161 min then 24° C. for 17.5 hours in the dark) was −0.006 and the “The OD470 nm of the ascorbate test” value ([1]; 300 ppm, 37° C. for 161 min in the dark) was 0.096. The “The OD470 nm of the ascorbate test” value ([1]; 300 ppm, 37° C. for 161 min then 24° C. for 17.5 hours in the dark) was 0.102, the “The OD470 nm of the ascorbate test” value ([1]; 500 ppm, 37° C. for 161 min in the dark) was 0.191 and the “The OD470 nm of the ascorbate test” value ([1]; 500 ppm, 37° C. for 161 min then 24° C. for 17.5 hours in the dark) was 0.200. For the same compound, the “OD586 nm of the ascorbate test” value ([2]; 100 ppm) was 0.279, the “OD586 nm of the ascorbate test” value ([2]; 300 ppm) was 0.097 and the “OD586 nm of the ascorbate test” value ([2]; 500 ppm) was 0.032.
In the case of `O=c1cc(CO)occ1O` [kojic acid], the “Prevention of browning of apple slices” value [3] is reported as “completely prevent browning” and the “Inhibition of PPO (in words)” value [4] is reported as “inhibited”.
In the case of `O=C1C(O)=COC(CO)C1O` [APP, 1,5-Anhydro-D-glycero-hex-1-en-3-ulose], the “Effect on oxidative de-coloration of beta-carotene (in words)” value [1] is reported as “delayed the oxidative de-coloration of beta-carotene”, the “The OD470 nm of the APP test” value ([1]; 2.5 ppm, 37° C. for 161 min in the dark, lower OD = more degradation) is reported as 0.264 and the “The OD470 nm of the APP tests” value ([1]; 2.5 ppm, 37° C. for 161 min then 24° C. for 17.5 hours in the dark) is reported as 0.173. The “The OD470 nm of the APP test” value ([1]; 6.2 ppm, 37° C. for 161 min in the dark) was 0.314, the “The OD470 nm of the APP tests” value ([1]; 6.2 ppm, 37° C. for 161 min then 24° C. for 17.5 hours in the dark) was 0.270 and the “The OD470 nm of the APP test” value ([1]; 12.5 ppm, 37° C. for 161 min in the dark) was 0.322. The “The OD470 nm of the APP tests” value ([1]; 12.5 ppm, 37° C. for 161 min then 24° C. for 17.5 hours in the dark) was 0.274, the “The OD470 nm of the APP test” value ([1]; 25 ppm, 37° C. for 161 min in the dark) was 0.326 and the “The OD470 nm of the APP tests” value ([1]; 25 ppm, 37° C. for 161 min then 24° C. for 17.5 hours in the dark) was 0.263. For the same compound, the “Effectiveness relative to ascorbic acid in preventing the de-coloration of β-carotene” value ([1]; FIG. 4) was “around 100 times”, the “Effect on oxidation of linoleic acid (in words)” value [2] was “able to delay the oxidation of linoleic acid” and the “OD586 nm of the APP test” value ([2]; 2.5 ppm, higher OD = more MDA and 4HNE) was 0.358. The “Efficiency in delaying the oxidative degradation of linoleic acid compared with ascorbic acid” value ([2]; 6.2 ppm APP, FIG. 5) was “almost as efficient as 300 ppm ascorbic acid”, the “OD586 nm of the APP test” value ([2]; 6.2 ppm) was 0.100 and the “OD586 nm of the APP test” value ([2]; 12.5 ppm) was 0.084. The “Function as an antibiotic” value [5] was “did not function satisfactorily as an antibiotic”, the “Inhibition of PPO (in words)” value [4] was “efficient inhibitor” and the “OD475 nm (browning product formation)” value ([4]; reaction time 0 min) was 0. For the same compound, the “OD475 nm (browning product formation)” value ([4]; reaction time 1 min) was 0, the “OD475 nm (browning product formation)” value ([4]; reaction time 3 min) was 0 and the “OD475 nm (browning product formation)” value ([4]; reaction time 5 min) was 0. The “OD475 nm (browning product formation)” value ([4]; reaction time 7 min) was 0.0005, the “OD475 nm (browning product formation)” value ([4]; reaction time 9 min) was 0.0017 and the “OD475 nm (browning product formation)” value ([4]; reaction time 11 min) was 0.0033. For the same compound, the “OD475 nm (browning product formation)” value ([4]; reaction time 13 min) was 0.0056, the “OD475 nm (browning product formation)” value ([4]; reaction time 15 min) was 0.0082 and the “OD475 nm (browning product formation)” value ([4]; reaction time 17 min) was 0.0122. For the same compound, the “OD475 nm (browning product formation)” value ([4]; reaction time 19 min) was 0.0178 and the “OD475 nm (browning product formation)” value ([4]; reaction time 20 min) was 0.0209.
For `O=C1O[C@H]([C@@H](O)CO)C(O)=C1O` [ascorbic acid, reference compound], the “Prevention of browning of apple slices” value [3] was “unable to do so”.
